The target of data set [1] is T1, Coagulation factor X (Homo sapiens, UniProt P00742). The experiment in a line: Inhibition of human F10a by fluorescence assay.
In data set [2] the test system is Plasma. The experiment in a line: Anticoagulant activity in human plasma assessed as drug level causing 1.5 times prolongation of prothrombin time. Type of data set: functional.
The target in data set [3] is Albumin (Homo sapiens, UniProt P02768). The experiment in a line: Binding affinity to human serum albumin. The format is ADME. The note with it: isolated protein.
Chain of Albumin (P02768 whole entry): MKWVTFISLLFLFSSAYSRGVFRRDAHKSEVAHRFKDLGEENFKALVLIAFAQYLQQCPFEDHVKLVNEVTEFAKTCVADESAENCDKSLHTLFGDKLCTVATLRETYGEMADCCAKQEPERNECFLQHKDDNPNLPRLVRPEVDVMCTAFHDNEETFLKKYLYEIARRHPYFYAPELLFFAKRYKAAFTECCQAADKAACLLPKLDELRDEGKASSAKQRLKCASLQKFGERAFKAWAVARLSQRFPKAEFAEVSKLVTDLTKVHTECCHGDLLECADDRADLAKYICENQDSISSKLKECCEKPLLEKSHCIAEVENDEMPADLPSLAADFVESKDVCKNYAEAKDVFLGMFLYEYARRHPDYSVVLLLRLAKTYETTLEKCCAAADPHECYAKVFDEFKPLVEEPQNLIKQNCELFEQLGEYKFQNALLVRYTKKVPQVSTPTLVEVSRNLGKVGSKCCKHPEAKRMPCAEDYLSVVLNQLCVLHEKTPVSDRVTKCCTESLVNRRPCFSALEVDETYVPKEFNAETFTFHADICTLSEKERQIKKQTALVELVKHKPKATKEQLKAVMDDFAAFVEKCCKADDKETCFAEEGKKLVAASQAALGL
Data set [4] can be described thus: Half life in Sprague-Dawley rat. The format is ADME, organism-based. The note with it: in vivo.
A short description of data set [5]: Plasma clearance in Sprague-Dawley rat. Type of data set: ADME, organism-based.
Data set [6] in a line: Volume of distribution at steady state in Sprague-Dawley rat. The note with it: in vivo, read-out: Vdss. Type of data set: ADME, organism-based.
The nature of data set [7]: Oral bioavailability in Sprague-Dawley rat. The note with it: in vivo. Type of data set: ADME, organism-based.
For data set [8], the target named is T1, Coagulation factor X. Description: Inhibition of human F10a by chromogenic assay.

Results on 28 compounds are retold here after ChEMBL document CHEMBL1140797, “Structure and property based design of factor Xa inhibitors: pyrrolidin-2-ones with biaryl P4 motifs” (Bioorg Med Chem Lett, 2008).

Where only a bound is given, the exact number is not on record here.

T1 sequence (P00742 41-179 limits assumed): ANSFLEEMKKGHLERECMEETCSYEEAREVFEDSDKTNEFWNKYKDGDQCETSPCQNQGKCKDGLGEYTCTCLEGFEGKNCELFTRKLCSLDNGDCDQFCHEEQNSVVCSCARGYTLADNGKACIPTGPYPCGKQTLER
T1 sequence (P00742 235-488 limits assumed): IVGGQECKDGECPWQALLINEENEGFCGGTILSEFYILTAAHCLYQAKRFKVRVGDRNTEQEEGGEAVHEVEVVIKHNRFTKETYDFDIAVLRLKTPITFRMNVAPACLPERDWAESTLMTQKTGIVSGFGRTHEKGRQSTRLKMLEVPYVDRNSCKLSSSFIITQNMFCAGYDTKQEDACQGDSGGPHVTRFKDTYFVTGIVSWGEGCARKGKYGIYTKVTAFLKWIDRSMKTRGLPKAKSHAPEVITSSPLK

As usually defined, the Ki is a dissociation constant, usually derived from enzyme kinetics or from competition with a known ligand. In data set [1], `O=C1C(NS(=O)(=O)c2ccc3cc(Cl)ccc3c2)CCN1c1ccc(-c2ccoc2)cc1F` (stereo not given) yielded a Ki of 74.6 nM. Also, the Activity in data set [2] was more than 100 µM.

`CS(=O)(=O)c1ccccc1-c1ccc(N2CCC(NS(=O)(=O)/C=C/c3ccc(Cl)s3)C2=O)c(F)c1` (stereo not given) yielded an Activity in data set [3] of 97.6%.

Turning to `NS(=O)(=O)c1ccccc1-c1ccc(N2CCC(NS(=O)(=O)/C=C/c3ccc(Cl)s3)C2=O)nc1` (stereo not given), the Activity in data set [3] is listed as 98%.

Consider `N#Cc1ncccc1-c1ccc(N2CCC(NS(=O)(=O)c3ccc4cc(Cl)ccc4c3)C2=O)c(F)c1` (stereo not given), for which, in data set [1], the Ki came to 0.7 nM. The Activity in data set [2] is 64.3 µM.

`O=C1C(NS(=O)(=O)c2ccc3cc(Cl)ccc3c2)CCN1c1ccc(-c2ccncc2)cc1F` (stereo not given) gave a Ki in data set [1] of 8.9 nM. The Activity in data set [2] came out at 92.9 µM.

As for `CS(=O)(=O)c1ccccc1-c1ccc(N2CCC(NS(=O)(=O)c3cc4nc(Cl)ccc4s3)C2=O)c(F)c1` (stereo not given), the Ki in data set [1] is 2 nM. The Activity in data set [2] was more than 100 µM.

As a reminder, the half-life is how long it takes for the measured level to halve. Low values mean fast loss, high ones slow loss. Broadly, the clearance is the volume of plasma or blood freed of the substance per unit of time. The low end stands for inefficient removal, the high end for efficient removal. The term bioavailability denotes the share of a dose that reaches the circulation, judged against a reference dose that is usually intravenous. In turn, `CS(=O)(=O)c1ccccc1-c1ccc(N2CCC(NS(=O)(=O)/C=C/c3ccc(Cl)s3)C2=O)nc1` (stereo not given) had an Activity in data set [3] of 97.6%. For the same compound, the half-life in data set [4] was 36 min. The clearance in data set [5] is 1.2 L/h/kg. In addition, in data set [6], the Vd amounted to 0.7 L/kg. The compound also returned a bioavailability in data set [7] of 29%.

As to `CS(=O)(=O)Nc1ccccc1-c1ccc(N2CCC(NS(=O)(=O)/C=C/c3ccc(Cl)s3)C2=O)nc1` (stereo not given), the Activity in data set [2] is 58.4 µM; in data set [3], 98.2%. Besides, the affinity in data set [8], expressed as Ki, was 14 nM.

On to `CN(C)S(=O)(=O)c1ccccc1-c1ccc(N2CCC(NS(=O)(=O)/C=C/c3ccc(Cl)s3)C2=O)nc1` (stereo not given), for which the affinity in data set [1] corresponds to a Ki of 0.4 nM. For the same compound, the Activity in data set [2] amounted to 65.1 µM.

Turning to `CN(C)C(=O)c1ccccc1-c1ccc(N2CCC(NS(=O)(=O)/C=C/c3ccc(Cl)s3)C2=O)nc1` (stereo not given), the Ki in data set [1] came to 11.8 nM. In addition, in data set [2], the Activity was 78.6 µM.

In turn, `O=C1C(NS(=O)(=O)/C=C/c2ccc(Cl)s2)CCN1c1ccc(-c2ccccc2C(F)(F)F)cn1` (stereo not given) yielded a Ki in data set [1] of 6 nM. Besides, the Activity in data set [2] was more than 100 µM.

The compound `CN(c1ccccc1-c1ccc(N2CCC(NS(=O)(=O)/C=C/c3ccc(Cl)s3)C2=O)nc1)S(C)(=O)=O` (stereo not given) came in with a Ki in data set [1] of 9.1 nM. Further, the Activity in data set [2] was more than 100 µM.

`CC(C)(C)c1ccccc1-c1ccc(N2CCC(NS(=O)(=O)/C=C/c3ccc(Cl)s3)C2=O)nc1` (stereo not given) returned a Ki in data set [8] of 2330 nM.

Consider `O=C1C(NS(=O)(=O)c2ccc3cc(Cl)ccc3c2)CCN1c1ccc(-c2cccnc2)cc1F` (stereo not given), for which, in data set [1], the Ki worked out at 6.3 nM. Further, the Activity in data set [2] was more than 100 µM.

In data set [3], `CS(=O)(=O)c1ccccc1-c1ccc(N2CCC(NS(=O)(=O)c3ccc4cc(Cl)ccc4c3)C2=O)c(F)c1` (stereo not given) gave an Activity of 98.8%. Further, the half-life in data set [4] was 54 min. In data set [5], the clearance is 1.2 L/h/kg. Further, the Vd in data set [6] worked out at 1.1 L/kg. This compound returned a bioavailability in data set [7] of 10%.

Take `O=C1C(NS(=O)(=O)c2ccc3cc(Cl)ccc3c2)CCN1c1ccc(-n2ccnc2)cc1F` (stereo not given): the Ki in data set [1] was 4.4 nM. For the same compound, the Activity in data set [2] was more than 100 µM.

As to `CS(=O)(=O)c1ccccc1-c1ccc(N2CCC(NS(=O)(=O)/C=C/c3ccc(Cl)cc3)C2=O)c(F)c1` (stereo not given), the Ki in data set [1] was less than 0.4 nM. For the same compound, the Activity in data set [2] turned out to be 30 µM. The compound also had a half-life in data set [4] of 48 min. In addition, the clearance in data set [5] turned out to be 0.552 L/h/kg. In data set [6], the Vd worked out at 0.5 L/kg. Moreover, in data set [7], the bioavailability amounted to 41%.

`N#Cc1ccccc1-c1ccc(N2CCC(NS(=O)(=O)/C=C/c3ccc(Cl)s3)C2=O)nc1` (stereo not given) displayed a Ki in data set [1] of 1.8 nM. Also, the Activity in data set [2] worked out at 73.7 µM.

Consider `CC(C)Oc1ccccc1-c1ccc(N2CCC(NS(=O)(=O)/C=C/c3ccc(Cl)s3)C2=O)nc1` (stereo not given), for which the Ki in data set [1] was 180 nM. Besides, the Activity in data set [2] was more than 100 µM.

Turning to `CS(=O)(=O)c1ccccc1-c1ccc(N2CCC(NS(=O)(=O)c3cc4cc(Cl)ccc4o3)C2=O)c(F)c1` (stereo not given), the affinity in data set [1], expressed as Ki, was 6.2 nM. Also, the Activity in data set [2] is more than 100 µM.

For the compound `CNS(=O)(=O)c1ccccc1-c1ccc(N2CCC(NS(=O)(=O)/C=C/c3ccc(Cl)s3)C2=O)nc1` (stereo not given), the Ki in data set [1] was less than 0.3 nM. For the same compound, the Activity in data set [2] is 25 µM.

Compound `Cn1ccnc1-c1ccc(N2CCC(NS(=O)(=O)c3ccc4cc(Cl)ccc4c3)C2=O)c(F)c1` (stereo not given) registered a Ki in data set [1] of 1.1 nM. Also, in data set [2], the Activity came out at 54.5 µM.

Take `O=C1C(NS(=O)(=O)c2ccc3cc(Cl)ccc3c2)CCN1c1ccc(-n2cccn2)cc1F` (stereo not given): the affinity in data set [1] corresponds to a Ki of 2.7 nM. Further, the Activity in data set [2] was more than 100 µM.

In data set [1], `Cn1cnc(-c2ccc(N3CCC(NS(=O)(=O)c4ccc5cc(Cl)ccc5c4)C3=O)c(F)c2)c1` (stereo not given) showed a Ki of 15.5 nM. Besides, the Activity in data set [2] was more than 100 µM.

Turning to `O=C1C(NS(=O)(=O)c2ccc3cc(Cl)ccc3c2)CCN1c1ccc(-c2ccccc2)cc1F` (stereo not given), the Ki in data set [1] worked out at 215 nM. For the same compound, the Activity in data set [2] is more than 100 µM.

On to `CS(=O)(=O)c1ccccc1-c1ccc(N2CCC(NS(=O)(=O)c3cc4ccc(Cl)cc4o3)C2=O)c(F)c1` (stereo not given), for which the Ki in data set [1] worked out at 1.1 nM. Besides, the results for the Activity in data set [2] and in data set [3] were more than 100 µM and 99.6%, respectively.

On to `CS(=O)(=O)c1ccccc1-c1ccc(N2CCC(NS(=O)(=O)/C=C/c3cc4ccc(Cl)cc4s3)C2=O)c(F)c1` (stereo not given), for which, in data set [1], the Ki turned out to be 0.1 nM. In addition, in data set [2], the Activity worked out at 28.7 µM.

In turn, `O=C1C(NS(=O)(=O)c2ccc3cc(Cl)ccc3c2)CCN1c1ccc(-c2ccccc2)cn1` (stereo not given) registered a Ki in data set [1] of 80 nM. The Activity in data set [2] is more than 100 µM.
